# Reference: patent publication US20240368096A1 (Enanta Pharmaceuticals, Inc., priority 2022, published 2024)
# pEC50: −log10 of the molar value.
# Tested on: HBV
# Assay: HBV infection in HepG2-NTCP cells (HBeAg AlphaLISA in supernatants)
# Type: cell-based
# Details: Hepatitis B virus, 192 h; HBV infection of HepG2-NTCP cells; HBeAg in supernatants at day 8 post infection; read-out: Cellular EC50
# Summary of the method: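 HepG2-NTCP A3 cells were pre-incubated 2 h with 3-fold serially diluted compounds, then infected with HBV at 2000 GE/cell with 4% PEG (0.5% DMSO final). After washing on day 1, cells stayed in 2.5% DMSO medium; supernatant HBeAg measured by AlphaLISA on day 8, EC50 versus DMSO controls.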
row,pEC50,SMILES
1,> 7.00,"CCCC[C@@H]1CN(c2ccccc2)c2cc(Nc3ccccc3F)c(-c3cc(F)c(F)c(C(=O)O)c3)cc2S(=O)(=O)N1C [Example 560, (R)-5-(3-butyl-7-((2-fluorophenyl)amino)-2-methyl-1,1-dioxido-5-phenyl-2,3,4,5-tetrahydrobenzo[f][1,2,5]thiadiazepin-8-yl)-2,3-difluorobenzoic acid]"
2,6.00 to 7.00,CC(C)C[C@@H]1CN(C(C)C)c2cc(Nc3ccccc3F)c(-c3ccc(F)c(C(=O)O)c3)cc2S(=O)(=O)N1C [Example 561]
3,6.00 to 7.00,CCCCC1CN(c2ccccc2)c2cc(CNc3ccccc3F)c(-c3ccc(F)c(C(=O)O)c3)cc2S(=O)(=O)N1C (centres unmarked) [Example 565]
4,6.00 to 7.00,"CCCC[C@@H]1CN(c2ccccc2)c2cc(C)c(-c3ccc(F)c(C(=O)O)c3)cc2S(=O)(=O)N1C [Example 566, (R)-5-(3-butyl-2,7-dimethyl-1,1-dioxido-5-phenyl-2,3,4,5-tetrahydrobenzo[f][1,2,5]thiadiazepin-8-yl)-2-fluorobenzoic acid]"
5,6.00 to 7.00,CCCC[C@@H]1CN(c2ccccc2)c2cc(C)c(-c3ccc(Cl)c(C(=O)O)c3)cc2S(=O)(=O)N1C [Example 567]
6,6.00 to 7.00,"CCCCC1CN(c2ccccc2)c2cc(C(F)(F)F)c(-c3ccc(F)c(C(=O)O)c3)cc2S(=O)(=O)N1C (centres unmarked) [Example 568, 5-(3-butyl-2-methyl-1,1-dioxido-5-phenyl-7-(trifluoromethyl)-2,3,4,5-tetrahydrobenzo[f][1,2,5]thiadiazepin-8-yl)-2-fluorobenzoic acid]"
7,> 7.00,"CC(C)C[C@@H]1CN(c2ccccc2)c2cc(-c3ccc(F)cc3)c(-c3ccc(F)c(C(=O)O)c3)cc2S(=O)(=O)N1C [Example 573, (R)-2-fluoro-5-(7-(4-fluorophenyl)-3-isobutyl-2-methyl-1,1-dioxido-5-phenyl-2,3,4,5-tetrahydrobenzo[f][1,2,5]thiadiazepin-8-yl)benzoic acid]"
8,> 7.00,CC(C)C[C@@H]1CN(c2ccccc2)c2cc(-c3cccc(F)c3)c(-c3ccc(F)c(C(=O)O)c3)cc2S(=O)(=O)N1C [Example 575]
9,> 7.00,CC(C)C[C@@H]1CN(c2ccccc2)c2cc(-c3ccccc3F)c(-c3ccc(F)c(C(=O)O)c3)cc2S(=O)(=O)N1C [Example 576]
10,< 6.00,CC(C)C[C@@H]1CN(c2ccccc2)c2cc(-c3cccc(NC=O)c3O)c(-c3ccc(F)c(C(=O)O)c3)cc2S(=O)(=O)N1C [Example 577]
11,6.00 to 7.00,CC(C)C[C@@H]1CN(c2ccccc2)c2cc(-c3cccc4ncoc34)c(-c3ccc(F)c(C(=O)O)c3)cc2S(=O)(=O)N1C [Example 578]
12,6.00 to 7.00,CC(C)C[C@@H]1CN(c2ccccc2)c2cc(-c3ccc4ncoc4c3)c(-c3ccc(F)c(C(=O)O)c3)cc2S(=O)(=O)N1C [Example 579]
13,> 7.00,CC(C)C[C@@H]1CN(c2ccccc2)c2cc(-c3cccnc3)c(-c3ccc(F)c(C(=O)O)c3)cc2S(=O)(=O)N1C [Example 580]

# The remaining lines, values behind:
row,SMILES,pEC50
1,"CN1[C@H](C2CCCCC2)CN(c2ccccc2)c2cc(N3CCCCC3)c(-c3ccc(Cl)c(C(=O)O)c3)cc2S1(=O)=O [Example 558, (R)-2-chloro-5-(3-cyclohexyl-2-methyl-1,1-dioxido-5-phenyl-7-(piperidin-1-yl)-2,3,4,5-tetrahydrobenzo[f][1,2,5]thiadiazepin-8-yl)benzoic acid]",> 7.00
2,COC1CCN(c2cc3c(cc2-c2ccc(Cl)c(C(=O)O)c2)S(=O)(=O)N(C)[C@H](C2CCCCC2)CN3c2ccccc2)CC1 [Example 559],6.00 to 7.00
3,"CSc1cc2c(cc1-c1cc(C)c(C(=O)O)s1)S(=O)(=O)N(C)[C@H](C1CCCCC1)CN2c1ccccc1 [Example 562, (R)-5-(3-cyclohexyl-2-methyl-7-(methylthio)-1,1-dioxido-5-phenyl-2,3,4,5-tetrahydrobenzo[f][1,2,5]thiadiazepin-8-yl)-3-methylthiophene-2-carboxylic acid]",> 7.00
4,CCCCC1CN(c2ccccc2)c2cc(CN3CCCCC3)c(-c3ccc(F)c(C(=O)O)c3)cc2S(=O)(=O)N1C (centres unmarked) [Example 564],6.00 to 7.00
5,"CN1[C@H](C2CCCCC2)CNc2cc(-c3ccccc3F)c(-c3ccc(F)c(C(=O)O)c3)cc2S1(=O)=O [Example 569, (R)-5-(3-cyclohexyl-7-(2-fluorophenyl)-2-methyl-1,1-dioxido-2,3,4,5-tetrahydrobenzo[f][1,2,5]thiadiazepin-8-yl)-2-fluorobenzoic acid]",> 7.00
6,CN1[C@H](C2CCCCC2)CNc2cc(-c3ccncc3)c(-c3ccc(F)c(C(=O)O)c3)cc2S1(=O)=O [Example 570],< 6.00
7,CN1[C@H](C2CCCCC2)CNc2cc(-c3ccoc3)c(-c3ccc(F)c(C(=O)O)c3)cc2S1(=O)=O [Example 571],6.00 to 7.00
8,CN1[C@H](C2CCCCC2)CNc2cc(-c3cccnc3)c(-c3ccc(F)c(C(=O)O)c3)cc2S1(=O)=O [Example 572],6.00 to 7.00
9,CN1C[C@@H](C2CCCCC2)N(C)S(=O)(=O)c2cc(-c3ccc(F)c(C(=O)O)c3)c(-c3ccccc3F)cc21 [Example 581],6.00 to 7.00
10,"CN1C[C@@H](C2CCCCC2)N(C)S(=O)(=O)c2cc(-c3ccc(F)c(C(=O)O)c3)c(Cl)cc21 [Example 582, (R)-5-(7-chloro-3-cyclohexyl-2,5-dimethyl-1,1-dioxido-2,3,4,5-tetrahydrobenzo[f][1,2,5]thiadiazepin-8-yl)-2-fluorobenzoic acid]",6.00 to 7.00
11,"CN1[C@H](C2CCCCC2)CN(c2ccccc2)c2cc(C3CC3)c(-c3cc(F)c(F)c(C(=O)O)c3)cc2S1(=O)=O [Example 583, (R)-5-(3-cyclohexyl-7-cyclopropyl-2-methyl-1,1-dioxido-5-phenyl-2,3,4,5-tetrahydrobenzo[f][1,2,5]thiadiazepin-8-yl)-2,3-difluorobenzoic acid]",6.00 to 7.00
12,"CN1[C@H](C2CCCCC2)CNc2cc(C3CCN(C(=O)OC(C)(C)C)CC3)c(-c3ccc(F)c(C(=O)O)c3)cc2S1(=O)=O [Example 584, (R)-5-(7-(1-(tert-butoxycarbonyl)piperidin-4-yl)-3-cyclohexyl-2-methyl-1,1-dioxido-2,3,4,5-tetrahydrobenzo[f][1,2,5]thiadiazepin-8-yl)-2-fluorobenzoic acid]",6.00 to 7.00
13,CN1[C@H](C2CCCCC2)CNc2cc(C34CC(C3)C4)c(-c3ccc(F)c(C(=O)O)c3)cc2S1(=O)=O [Example 585],6.00 to 7.00
14,CN1[C@H](C2CCCCC2)CNc2cc(C3CCC3)c(-c3ccc(F)c(C(=O)O)c3)cc2S1(=O)=O [Example 586],6.00 to 7.00
15,CN1[C@H](C2CCCCC2)CN(c2ccccc2)c2cc(C34CC(C3)C4)c(-c3ccc(F)c(C(=O)O)c3)cc2S1(=O)=O [Example 587],6.00 to 7.00
16,CN1[C@H](C2CCCCC2)CN(c2ccccc2)c2cc(C3COC3)c(-c3ccc(F)c(C(=O)O)c3)cc2S1(=O)=O [Example 588],6.00 to 7.00
17,CN1[C@H](C2CCCCC2)CN(c2ccccc2)c2cc(C3CC(F)(F)C3)c(-c3ccc(F)c(C(=O)O)c3)cc2S1(=O)=O [Example 589],> 7.00
18,CN1[C@H](C2CCCCC2)CN(c2ccccc2)c2cc(C3CCN(C(=O)OC(C)(C)C)CC3)c(-c3ccc(F)c(C(=O)O)c3)cc2S1(=O)=O [Example 590],6.00 to 7.00
19,CN1[C@H](C2CCCCC2)CN(c2ccccc2)c2cc(C3CCOCC3)c(-c3ccc(F)c(C(=O)O)c3)cc2S1(=O)=O [Example 591],6.00 to 7.00
